“Also recorded” adds a separate entry of the source.
Legend:
[1] = system: MM cells (CD138+ cells); experiment: Viability of MM cells in BM-MNCs cultured with YM155 by FACS; type: cell-based, human; details: BM-MNCs of MM patients; different doses of YM155; 24 hours
Protocol: Effect of YM155 on NK cell viability was evaluated first. BM-MNCs of MM patients were cultured in the presence of different doses of YM155 for 24 hours. Viability of MM cells (CD138^+ cells) and NK cells (CD3^−CD138^−CD56^+ cells) were determined by FACS.

[2] = system: NK cells (CD3−CD138−CD56+ cells); experiment: Effect of YM155 on NK cell viability by FACS; type: cell-based, human; details: 24 hours
Protocol: FIG. 3. […] HD-PBMCs and patient bone marrow mononuclear cells (BMMNCs) were incubated with the indicated concentrations of YM155 for 24 hours. The number of viable CD3^−CD56^+ NK cells was determined by flow cytometry and the percent lysis was calculated using the untreated samples as negative control. Effect of YM155 on NK cell viability was evaluated first. BM-MNCs of MM patients were cultured in the presence of different doses of YM155 for 24 hours. Viability of MM cells (CD138^+ cells) and NK cells (CD3^−CD138^−CD56^+ cells) were determined by FACS.

[3] = system: MM cell line UM9; experiment: In vivo tumor targeting, UM9 in humanized BM-like scaffolds; set-up: species or system RAG2−/−γc−/− mice; details: UM9 scaffolds s.c.; YM155 1 mg/kg/d for 10 days by s.c. infusion pump; T cell-depleted HD-PBMCs given
Excerpt: FIG. 5. Antitumor effect of daratumumab and YM155 combination therapy. Analysis of tumor load per treatment group in RAG2^−/−γc^−− mice implanted with UM9 cells. Hybrid scaffolds coated with human MSCs and loaded with luciferase transduced MM cell line UM9 were implanted subcutaneously in the back of RAG2^−/−γc^−− mice (4 scaffolds per mice). Ten days after implantation, the growing tumors were visualized and quantified by BLI. Different groups of mice (n=4) were then either treated with vehicle control (control) or treated with daratumumab, YM155 or daratumumab plus YM155 as indicated. […] Mice were monitored weekly by BLI. Results are expressed as the mean tumor load in each scaffold. […] The statistical differences between mice treated with daratumumab and mice treated with daratumumab plus YM155 were calculated using the Mann-Whitney U-test. […]
The in vivo relevance of the combination of daratumumab with YM155 was tested in the preclinical xenograft model in RAG2^−/−gc^−/− mice, in which MM tumors were grown in a humanized BM-like niche created by subcutaneous implantation of ceramic scaffolds coated with human BMSCs. […] Ten days after implantation, the growing tumors were visualized and quantified by BLI. […] Mice were monitored weekly by BLI. […] Statistical differences between mice treated with daratumumab and mice treated with daratumumab plus YM155 were calculated using the Mann-Whitney U-test.

[4] = system: RPMI-8226 cells; experiment: Compartment-specific BLI-based ADCC cytotoxicity assay, RPMI-8226; type: cell-based, human; details: 4 hours; for lysis of cells: daratumumab 0.3 μg/ml, YM155 1 nM, PBMC effector:target 40:1
Protocol: (§1) hBMSC were plated at a density of 1×10^4 cells/well in white opaque flat-bottomed 96-well plates (Costar) in 100 μl culture medium. After an adherence period of six hours, luc-transduced MM cell lines were added at a density of 1×10^4 cells/well in BMSC-coated or uncoated wells. In experiments in which YM155 was tested, YM155 was added at indicated concentrations together with MM cells. After 16-20 hours, daratumumab was added at indicated concentrations and left for 15 minutes at room temperature. Freshly isolated PBMC from healthy individuals were then added as effector cells at the indicated effector target ratios. 4 hours after addition of PBMC, 125 μg/ml beetle luciferin (Promega) was added and the bioluminescent signal emitted from surviving MM cells was determined within 20 minutes using a luminometer (SpectraMax, Molecular Devices). The percentage survival of MM cells was calculated using the formula: % survival=(mean bioluminescent signal in the absence of PBMCs/mean bioluminescent signal in the presence of PBMCs)×100%. In these assays the survival of MM cells is a direct reflection of ADCC mediated lysis and correlates with classical chromium release assays as described in McMillin et al., Nat Med 16:483-489, 2010.
Induction of ADCC by healthy donor BMSCs against two CD38^+ luciferase transduced MM cell lines, UM9 and RPMI was tested with serial concentrations of daratumumab in the presence or absence of HD-PBMCs as effector cells in compartment-specific BLI-based cytotoxicity assays.
In the assays, daratumumab and YM155 were used at a concentration of 0.3 μg/ml and 1 nM, respectively, for RPMI-8226 cells and at a concentration of 1 μg/ml and 120 nM for MM patient samples, respectively. Healthy donor PBMCs were used as effector cells at effector:target cell ratio of 40:1 for RPMI-8226 cells and 30:1 for MM patient samples.

[5] = system: UM9 MM cells; experiment: Compartment-specific BLI-based ADCC cytotoxicity assay, UM9; type: cell-based, human; details: serial concentrations, PBMC:MM 30:1, 4 hours
Protocol: as §1, with “2010. […]” for “2010.”

[6] = system: primary CD138+ MM cells; experiment: FACS based ADCC assay in Multiple Myeloma BM-MNC; type: cell-based, human; details: presence of autologous MM-BMSCs; both donors; 24 hours
Protocol: Frozen BM-MNCs from MM patients with 15-35% CD138^+ MM cells were used in FACS-based ADCC assays. The cells were thawed and cultured in 10% HS in RPMI. After 16-20 h, BM-MNCs were counted by trypan blue exclusion and 4×10^4 cells/well were plated in 96 round bottom plates. Daratumumab and/or YM155 were added in the wells as indicated per experiment. After 24 hours, cells were stained with fluorescent conjugated anti-CD138, anti-CD38, anti-CD56 and anti-CD3 antibodies and the survival of primary CD138^+ MM cells in the BM-MNCs was determined by FACS as previously described (Groen et al., Blood 120:e9-e16, 2012). Percentage lysis of MM cells was deduced using the following formula: % lysis cells=1−(counts of surviving CD138^+ cells in treated wells/counts of number of surviving CD138^+ cells in control wells)×100%.
Ability of BMSCs to protect primary MM cells from daratumumab-induced ADCC was also evaluated in a FACS-based ADCC assay using methodology described above. In the assays, BM-MNCs containing at least 15% CD138^+ malignant plasma cells and sufficient numbers of autologous effector NK cells were incubated with daratumumab to induce ADCC. The BM-MNCs were tested either alone or in co-culture with autologous BMSCs to evaluate the effect of BMSCs. FACS-based viability assay was performed after 24 hours of culture to determine CD138^+ surviving cells and calculate lysis. […]

Molecule | viability of MM cells (CD138+ cells) [1] | viability of NK cells ([2]; BM-MNCs of MM patients, different doses of YM155) | NK cell lysis ([2]; HD-PBMCs and patient BMMNCs, indicated concentrations of YM155) | tumor growth (BLI) [3] | lysis of cells ([4]; absence of BMSCs) | lysis of cells ([4]; presence of BMSCs) | daratumumab-induced ADCC ([5]; absence of BMSCs) | sensitivity to daratumumab-induced ADCC ([5]; presence of BMSCs) | induction of ADCC of primary MM cells [6] | daratumumab-induced ADCC ([4]; absence of BMSCs, serial concentrations, PBMC:MM 30:1) | sensitivity to daratumumab-induced ADCC ([4]; presence of BMSCs, serial concentrations, PBMC:MM 30:1)
COCCn1c2c([n+](Cc3cnccn3)c1C)C(=O)c1ccccc1C2=O [YM155, 4,9-Dihydro-1-(2-methoxyethyl)-2-methyl-4,9-dioxo-3-(2-pyrazinylmethyl)-1H-naphth[2,3-d]imidazolium bromide] | some toxicity | not affected; also recorded: does not negatively interfere | does not induce NK cell lysis | more pronounced | about 20% | no effect | – | – | – | – | –
daratumumab: anti-CD38 antibody of IgG1/κ subtype, VH SEQ ID NO: 4 and VL SEQ ID NO: 5 | – | – | – | marginal effect | about 20% | about 10% | dose dependent fashion | less sensitive | less efficient | dose dependent fashion | less sensitive

Reference: patent US10668149B2, “Combination therapies for heme malignancies with anti-CD38 antibodies and survivin inhibitors” (Janssen Biotech, Inc., priority 2015, dated 2020)
